Test results as given in paper PMC5226997 (European Journal of Clinical Pharmacology, 2016).
“And” between values parts separate entries of the source, which are not always exact repeats. Equal entries are not always repeated. Where two headings read alike, the source gives them in different places. Marks after values point to notes of the source that are not given here.

Legend:
[1] = human, in vivo
Description: (§1) The phase I, open-label, single-center, double-crossover-sequence, partially randomized (for assignment to treatment sequence), three-period itraconazole/fluconazole trial consisted of four visits to the study center (Fig. 1a). Subjects were screened during visit 1, which is 28 days prior to visit 2.
(§2) On day 1 of visit 2, subjects were randomized to one of two treatment sequences and admitted for residence at the study center up to day 12; standardized meals were provided during residency. […] Safety assessments were performed, and blood samples were collected for PK analysis up until day 12. Subjects were discharged on day 12 and completed a washout period of at least 21 days.
(§3) During visit 3, dosing period 3 comprised days 1–11 when subjects received the alternate treatment regimen (fluconazole 400 mg on day 1 followed by 200 mg once daily thereafter or itraconazole 200 mg twice daily) in a crossover fashion. […] Subjects were discharged on day 12. A follow-up visit, visit 4, was scheduled for 7–10 days after discharge from the study center.
(§4) Fluids were not allowed from 1 h pre- until 1 h post-dose, with the exception of 240 mL water to swallow the capsules. Fluconazole was dosed with a light breakfast; there were no restrictions regarding dosing with food in the SPC [8]. Itraconazole was dosed with a light breakfast and dinner as per SPC guidelines to ensure complete absorption [9].
(§5) Blood samples were collected prior to itraconazole or fluconazole administration on days 6 to 8 to determine trough itraconazole or fluconazole concentrations; rifampicin concentrations were measured at 2 h post-dose. In study B, the 4β-hydroxycholesterol to cholesterol concentration ratio was calculated as a biomarker of CYP3A4 induction. […] Samples were analyzed by Covance on behalf of AstraZeneca R&D, using an appropriate bioanalytical method [e.g., [11], [12]].
(§6) PK variables were summarized using descriptive statistics.
(§7) After addition of deuterated internal standard, samples were extracted by protein precipitation by the addition of 4 volumes of methanol:acetonitrile. After centrifugation, the supernatants were extracted to dryness under nitrogen at 50°C and reconstituted in methanol;water before analysis.

[2] = Frozen storage stability in plasma samples; settings: plasma with K2EDTA; -20°C -80°C
Description: as §7

[3] = human, in vivo, 75 mg
Description: The rifampicin open-label, fixed-sequence, single-center trial consisted of three visits to the study center (Fig. 1b). Subjects were screened during visit 1, which is 28 days prior to visit 2. […] Safety assessments were performed, and blood samples were collected for PK analysis up until day 15. Subjects were discharged from the study center on day 15. The final visit, visit 3, was for follow-up and took place 7–10 days after discharge.
Subjects received daily dosing of rifampicin 600 mg for 8 days to maximize the induction effect on CYP3A4 [10]. […] Fluids were not allowed from 1 h pre- until 1 h post-dose, with the exception of water needed to swallow investigational products.
as §5, §6, §7

[4] = Study A: plasma pharmacokinetics of single-dose selumetinib 25 mg alone or co-dosed with itraconazole or fluconazole; settings: for AUC / Cmax / half-life: human, plasma, oral
Description: as §1, §2, §3, §4, §5, §6, §7

[5] = Study B: safety and tolerability (adverse events); type: in vivo, human
Description: Adverse events (reported by system organ class and preferred term using the Medical Dictionary for Regulatory Activities (MedDRA) version 17.0), vital signs, 12-lead electrocardiograms (ECGs), and clinical laboratory tests were recorded to assess safety and tolerability in both trials. Adverse events were collected from day 1, period 1 of visit 2, until the follow-up visit in each trial. Serious adverse events were collected from the time of informed consent until follow-up. Each adverse event was assigned to the period of study treatment in which it started or worsened. Additional information regarding safety and tolerability is included as Online Resource 3.
The safety analysis set included any subject who received at least one dose of any of the investigational products, and in addition in the itraconazole/fluconazole trial, for whom post-dose data were available.

[6] = clinical; settings: human, in vivo, 75 mg
[7] = Study B: plasma pharmacokinetics of single-dose selumetinib 75 mg alone or co-dosed with rifampicin; settings: human, in vivo
[8] = Study A: safety and tolerability (adverse events); type: in vivo, human
[9] = parameters: method as in earlier work; settings: relative bioavailability trial NCT01635023; cited from earlier work
[10] = human
[11] = co-dosed with fluconazole vs selumetinib alone
[12] = during single-agent (only) treatment

O=C(NOCCO)c1cc2nc[nH]c2c(F)c1Nc1ccc(Br)cc1Cl [N-desmethyl selumetinib]
AUC(0–t), geometric least squares mean (GLSMR line) ([1]; 25 mg): 83.39 ng·h/mL
C max, geometric least squares mean (GLSMR line) ([1]; 25 mg): 35.67 ng/mL
MRAUC(0–t) (AUC(0–t) metabolite to parent ratio), arithmetic mean (SD) ([1]; 25 mg): 0.0760 (0.0227)
MRCmax (C max metabolite to parent ratio), arithmetic mean (SD) ([1]; 25 mg): 0.0917 (0.0312)
t 1/2 arithmetic mean (SD) ([1]; 25 mg): 4.66 (2.38) h
t max median (min, max) ([1]; 25 mg): 1.00 (0.50, 2.50) h
established frozen storage stability period [2]: 9 months
AUC(0–t), geometric least squares mean (GLSMR line) [3]: 347.3 ng·h/mL
C max, geometric least squares mean (GLSMR line) [3]: 106.4 ng/mL
MRAUC (AUC metabolite to parent ratio), arithmetic mean (SD) [3]: 0.0921 (0.0236)^a
MRAUC(0–t) (AUC(0–t) metabolite to parent ratio), arithmetic mean (SD) [3]: 0.0921 (0.0236)
MRCmax (C max metabolite to parent ratio), arithmetic mean (SD) [3]: 0.0760 (0.0187)
t 1/2 arithmetic mean (SD) [3]: 9.47 (3.24) h
t max median (min, max) [3]: 1.50 (1.00, 3.00) h

Cn1cnc2c(F)c(Nc3ccc(Br)cc3Cl)c(C(=O)NOCCO)cc21 [Selumetinib]
AUC increased by [4, 11]: 53% and ~ 50%
C max increased by [4, 11]: 26%
AUC ([4]; 25 mg, AUC (CV%), study A, selumetinib 25 mg alone, N = 26): 1180 ng·h/mL
AUC ([4]; 25 mg, AUC, geometric least squares mean (GLSMR line), study A, selumetinib 25 mg alone, n = 26, linear mixed-effects model): 1180 ng·h/mL
Cmax ([4]; 25 mg, C max (CV%), study A, selumetinib 25 mg alone, N = 26): 409 ng/mL
Cmax ([4]; 25 mg, C max, geometric least squares mean (GLSMR line), study A, selumetinib 25 mg alone, n = 26, linear mixed-effects model): 409 ng/mL
half-life ([4]; 25 mg, t 1/2 arithmetic mean (SD), study A, selumetinib 25 mg alone, N = 26): 8.24 h
AUC ([4]; AUC (CV%), study A, selumetinib 25 mg + fluconazole, N = 22): 1770 ng·h/mL
AUC ([4]; AUC (CV%), study A, selumetinib 25 mg + itraconazole, N = 24): 1760 ng·h/mL
AUC ([4]; AUC, geometric least squares mean (GLSMR line), study A, selumetinib 25 mg + fluconazole, n = 22, linear mixed-effects model): 1820 ng·h/mL
AUC ([4]; AUC, geometric least squares mean (GLSMR line), study A, selumetinib 25 mg + itraconazole, n = 24, linear mixed-effects model): 1770 ng·h/mL
Cmax ([4]; C max (CV%), study A, selumetinib 25 mg + fluconazole, N = 22): 509 ng/mL
Cmax ([4]; C max (CV%), study A, selumetinib 25 mg + itraconazole, N = 24): 484 ng/mL
Cmax ([4]; C max, geometric least squares mean (GLSMR line), study A, selumetinib 25 mg + fluconazole, n = 22, linear mixed-effects model): 513 ng/mL
Cmax ([4]; C max, geometric least squares mean (GLSMR line), study A, selumetinib 25 mg + itraconazole, n = 24, linear mixed-effects model): 484 ng/mL
half-life ([4]; mean t 1/2 prolonged by, co-dosed with fluconazole vs selumetinib alone): ~1.5 h
half-life ([4]; mean terminal half-life (t 1/2) prolonged by, co-dosed with itraconazole vs selumetinib alone): ~6 h
half-life ([4]; t 1/2 arithmetic mean (SD), study A, selumetinib 25 mg + fluconazole, N = 22): 9.75 h
half-life ([4]; t 1/2 arithmetic mean (SD), study A, selumetinib 25 mg + itraconazole, N = 24): 14 h
CL/F arithmetic mean (SD) ([4]; study A, selumetinib 25 mg + fluconazole, N = 22): 14.8 (4.39) L/h
CL/F arithmetic mean (SD) ([4]; study A, selumetinib 25 mg + itraconazole, N = 24): 14.9 (4.92) L/h
CL/F arithmetic mean (SD) ([4]; study A, selumetinib 25 mg alone, N = 26): 21.9 (5.76) L/h
relation of adverse events to selumetinib treatment ([5]; all adverse events mild): unrelated
subjects reporting at least one adverse event ([5]; selumetinib co-dosed with rifampicin, one subject (erythema)): 4.5%
subjects reporting at least one adverse event ([5]; selumetinib-only treatment, four subjects): 18.2%
tolerability ([5]; single dose or co-administered with rifampicin): well tolerated
Tmax [6]: 1.27 h
AUC ([6]; AUC, geometric least squares mean (GLSMR line)): 4480 ng·h/mL
half-life ([6]; t 1/2 arithmetic mean (SD)): 9.27 h
C max, geometric least squares mean (GLSMR line) [3]: 1441 ng/mL
CL/F arithmetic mean (SD) [3]: 17.0 (3.33) L/h
AUC [7]: 4480 ng·h/mL
subjects reporting adverse events [8, 12]: 7.7%
subjects with selumetinib-related adverse events (diffuse alopecia, headache; mild) ([8]; selumetinib and itraconazole co-dosing, n = 2): 8.3%
subjects reporting adverse events ([8]; selumetinib co-dosed with fluconazole, 4/22): 18.2%
subjects with selumetinib-related acne (mild) ([8]; selumetinib co-dosed with fluconazole, one subject): 4.5%
subjects reporting headache ([8]; selumetinib co-dosed with itraconazole, n = 4/24): 16.7%
subjects reporting adverse events ([8]; selumetinib co-dosed with itraconazole, n = 7/24): 29.2%
subjects reporting a moderate adverse event (headache) ([8]; selumetinib co-dosed with itraconazole, one subject): 4.2%
tolerability ([8]; single dose or co-administered with itraconazole or fluconazole): well tolerated
within-subject coefficient of variation (CV) for AUC [9]: 16.9%
within-subject coefficient of variation (CV) for C max [9]: 34.0%
established frozen storage stability period [10]: 24 months

OC(Cn1cncn1)(Cn1cncn1)c1ccc(F)cc1F [fluconazole, reference compound]
trough plasma concentration (geometric mean) [1]: 5590 to 5730 ng/mL
subjects reporting adverse events [8, 12]: 17.4%

CCC(C)n1ncn(-c2ccc(N3CCN(c4ccc(OCC5COC(Cn6cncn6)(c6ccc(Cl)cc6Cl)O5)cc4)CC3)cc2)c1=O (centres unmarked) [itraconazole, reference compound]
subjects reporting adverse events [8, 12]: 20.8%

CO[C@H]1/C=C/O[C@@]2(C)Oc3c(C)c(O)c4c(O)c(c(/C=N/N5CCN(C)CC5)c(O)c4c3C2=O)NC(=O)/C(C)=C\C=C\[C@H](C)[C@H](O)[C@@H](C)[C@@H](O)[C@@H](C)[C@H](OC(C)=O)[C@@H]1C [rifampicin, reference compound]
subjects reporting adverse events ([5]; period of rifampicin administration (days 4–11)): all subjects
subjects reporting chromaturia ([5]; period of rifampicin administration (days 4–11), resolved 2 to 3 days after treatment ceased): reported by all of these subjects
